Assay results as given in US12310975B2, “Modulators of BCL6 proteolysis and associated methods of use” (Arvinas Operations, Inc., priority 2019, dated 2025).
Read-outs that look alike come from different tables or passages of the source.

Biological target: BCL6 (Homo sapiens (Human), UniProt P41182)
Experiment: Immunofluorescence high content imaging of BCL6 degradation in T47D cells
Type: cell-based
Settings: for DC50: class symbols A-D, read-out: EC50 (nM)*
In short: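 BCL6 loss was quantified by high-content imaging (10×, 4 fields/well) after PFA fixation and anti-BCL6/Alexa-488 staining with Hoechst nuclear and CellMask counterstains. Compounds were applied for 3 days to T47D breast cancer cells in RPMI-10% FBS, 11 points, 3-fold steps, top 0.1 or 1 μM.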

DC50 | Dmax (T47D cells) | IC50 (T47D cells) | SMILES | further results
– | ≥ 70% | < 10 nM | CNC(=O)COc1cc2cc(Nc3nc(N4CCC(CN5CCC6(CC5)CN(c5cccc7c5CN(C5CCC(=O)NC5=O)C7=O)C6)CC4)ncc3Cl)ccc2n(C(C)C)c1=O (centres unmarked) [compound 442, 2-{[6-({5-chloro-2-[4-({2-[2-(2,6-dioxopiperidin-3-yl)-1-oxo-2,3-dihydro-1H-isoindol-4-yl]-2,7-diazaspiro[3.5]nonan-7-yl}methyl)piperidin-1-yl]pyrimidin-4-yl}amino)-2-oxo-1-(propan-2-yl)-1,2-dihydroquinolin-3-yl]oxy}-N-methylacetamide] | –
– | – | – | CC(=O)COc1cc2cc(Nc3nc(C#CC4CCN(c5cccc6c5C(=O)N(C5CCC(=O)NC5=O)C6=O)CC4)ncc3Cl)ccc2n(C)c1=O (centres unmarked) [compound 184, 4-(4-((5-chloro-4-((1-methyl-2-oxo-3-(2-oxopropoxy)-1,2-dihydroquinolin-6-yl)amino)pyrimidin-2-yl)ethynyl)piperidin-1-yl)-2-(2,6-dioxopiperidin-3-yl)isoindoline-1,3-dione] | IC50: 10 to 50 nM; Dmax (T47D): 50 to 70%
– | < 50% | < 10 nM | CCOc1cc(N2CCC(CN3CCN(c4ncc(Cl)c(Nc5ccc6c(c5)cc(OCC(=O)NC)c(=O)n6C)n4)CC3)CC2)ccc1C(=O)NC1CCC(=O)NC1=O (centres unmarked) [compound 344, 4-[4-({4-[5-chloro-4-({1-methyl-3-[(methylcarbamoyl)methoxy]-2-oxo-1,2-dihydroquinolin-6-yl}amino)pyrimidin-2-yl]piperazin-1-yl}methyl)piperidin-1-yl]-N-(2,6-dioxopiperidin-3-yl)-2-ethoxybenzamide] | –
50 to 100 nM | – | – | CNC(=O)COc1cc2cc(Nc3nc(N4CCC(c5cn(CCOCCOCCOc6ccc7c(c6)C(=O)N(C6CCC(=O)NC6=O)C7=O)nn5)CC4)ncc3Cl)ccc2n(C)c1=O (centres unmarked) [compound 120, 2-((6-((5-chloro-2-(4-(1-(2-(2-(2-((2-(2,6-dioxopiperidin-3-yl)-1,3-dioxoisoindolin-5-yl)oxy)ethoxy)ethoxy)ethyl)-1H-1,2,3-triazol-4-yl)piperidin-1-yl)pyrimidin-4-yl)amino)-1-methyl-2-oxo-1,2-dihydroquinolin-3-yl)oxy)-N-methylacetamide] | –
– | 50 to 70% | 10 to 50 nM | CNC(=O)COc1cc2cc(Nc3nc(N4CCC[C@H](COc5cccc6c5C(=O)N(C5CCC(=O)NC5=O)C6=O)C4)ncc3Cl)ccc2n(C2CC2)c1=O (stereo partly drawn) [compound 336, 2-{[6-({5-chloro-2-[(3S)-3-({[2-(2,6-dioxopiperidin-3-yl)-1,3-dioxo-2,3-dihydro-1H-isoindol-4-yl]oxy}methyl)piperidin-1-yl]pyrimidin-4-yl}amino)-1-cyclopropyl-2-oxo-1,2-dihydroquinolin-3-yl]oxy}-N-methylacetamide] | –
> 100 nM | – | – | CN1C(=O)CCc2cc(Nc3cc(N4CCC(OCCOCCOCCOCCOCCOc5ccc6c(c5)CN(C5CCC(=O)NC5=O)C6=O)CC4)c([N+](=O)[O-])cc3Cl)ccc21 (centres unmarked) [compound 105, 3-(5-((14-((1-(4-chloro-5-((1-methyl-2-oxo-1,2,3,4-tetrahydroquinolin-6-yl)amino)-2-nitrophenyl)piperidin-4-yl)oxy)-3,6,9,12-tetraoxatetradecyl)oxy)-1-oxoisoindolin-2-yl)piperidine-2,6-dione] | –

SMILES | DC50 | Dmax (T47D cells) | IC50 (T47D cells) | further results
CNC(=O)COc1cc2cc(Nc3nc(N4CCC(OCc5ccccc5OCCCCOCCOCCOc5ccc6c(c5)CN(C5CCC(=O)NC5=O)C6=O)CC4)ncc3Cl)ccc2n(C)c1=O (centres unmarked) [compound 136, 2-((6-((5-chloro-2-(4-((2-(4-(2-(2-((2-(2,6-dioxopiperidin-3-yl)-1-oxoisoindolin-5-yl)oxy)ethoxy)ethoxy)butoxy)benzyl)oxy)piperidin-1-yl)pyrimidin-4-yl)amino)-1-methyl-2-oxo-1,2-dihydroquinolin-3-yl)oxy)-N-methylacetamide] | > 100 nM | – | – | –
